Source: PMC5571359, “Screening the Medicines for Malaria Venture Pathogen Box across Multiple Pathogens Reclassifies Starting Points for Open-Source Drug Discovery” (Antimicrobial Agents and Chemotherapy, 2017)
Where two headings read alike, the source gives them in different places.

How the values were obtained:
[1] = test system: NF54-pfs16-LUC-GFP stage IV gametocytes; assay: Plasmodium falciparum late stage gametocyte (LSG) image-based assay; format: cell-based; details: Plasmodium falciparum, NF54, read-out: percent inhibition at the top screening dose, P. falciparum NF54 LSG
[2] = test system: T. cruzi intracellular amastigotes; assay: Intracellular anti-Trypanosoma cruzi image-based assay (amastigotes); format: cell-based; details: Trypanosoma cruzi; reference compound set; IA = inactive at 16.4 μM; read-out: IC50 T. cruzi intracellular amastigotes
[3] = test system: 3T3 host cells; assay: T. cruzi assay, activity against 3T3 host cells; format: cell-based; details: reference compound set; IA = inactive at 16.4 μM
In short: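 3T3 cells were seeded on collagen-coated plates, incubated 24 h at 37 °C, infected with T. cruzi at MOI 5:1, and washed free of extracellular parasites after a further 24 h. Following 48 h compound exposure, cells were fixed, stained with Hoechst 33342 and HCS CellMask Green, and imaged by high-content analysis.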

[4] = test system: T. b. brucei 427 bloodstream trypanosomes; assay: T. b. brucei resazurin viability assay; format: cell-based, Trypanosoma brucei brucei; details: Trypanosoma brucei; reference compound set; IA = inactive at 20 μM; read-out: IC50 T. brucei brucei trypomastigotes
[5] = test system: L. donovani MHOM/IN/80/DD8 intracellular amastigotes; assay: Leishmania donovani intracellular amastigote assay in THP-1 cells; format: cell-based; details: Leishmania donovani, reference compound set, IA = inactive at 20 μM
[6] = in vitro; details: human
[7] = test system: Plasmodium falciparum 3D7 asexual blood stage; assay: microbe, parasite or virus in culture; details: 3D7, read-out: IC50 P. falciparum 3D7 ABS

CO[C@H]1/C=C/O[C@@]2(C)Oc3c(C)c(O)c4c(O)c(c(/C=N/N5CCN(C)CC5)c(O)c4c3C2=O)NC(=O)/C(C)=C\C=C\[C@H](C)[C@H](O)[C@@H](C)[C@@H](O)[C@@H](C)[C@H](OC(C)=O)[C@@H]1C [Rifampin, reference compound]
inhibition at 20 µM [1]: 78% | IC50 [2]: > 16.4 µM | IC50 [3]: > 16.4 µM | IC50 [4]: > 20 µM | IC50 ([5]; THP-1, read-out: IC50 L. donovani n = 1, first test): > 20 µM | IC50 ([5]; THP-1, read-out: IC50 L. donovani n = 2, second test): > 20 µM | IC50 at 72 h [6]: > 20 µM | IC50 [7]: 2.23 µM
